# Test results as given in patent US20250215029A1 (Recludix Pharma, Inc., priority 2022, published 2025).
# Target: T1, pY705-STAT3 in PBMC (Homo sapiens, UniProt P40763)
# T1 construct: Cryopreserved Peripheral Blood Mononuclear Cells (PBMC) are from AllCells; host or cells: cryopreserved PBMC
# Experiment: MSD-pSTAT-PBMC Assay (pSTAT3, IL-6 stimulated)
# Assay type: cell-based
# Conditions: PBMC, compound 3 hrs, then 10 ng/mL IL-6 for 10 min; Table 115; read-out: STAT3
# Method in brief: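 Human PBMCs were pretreated with compound for 3 h, then stimulated with 10 ng/mL IL-6 for 10 min. Lysate pY705-STAT3 was measured by MSD sandwich immunoassay (anti-STAT3 capture) and corrected for unstimulated background. Signal was normalized to DMSO, and IC50 came from variable-slope regression.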
# T1 sequence (P40763 whole entry): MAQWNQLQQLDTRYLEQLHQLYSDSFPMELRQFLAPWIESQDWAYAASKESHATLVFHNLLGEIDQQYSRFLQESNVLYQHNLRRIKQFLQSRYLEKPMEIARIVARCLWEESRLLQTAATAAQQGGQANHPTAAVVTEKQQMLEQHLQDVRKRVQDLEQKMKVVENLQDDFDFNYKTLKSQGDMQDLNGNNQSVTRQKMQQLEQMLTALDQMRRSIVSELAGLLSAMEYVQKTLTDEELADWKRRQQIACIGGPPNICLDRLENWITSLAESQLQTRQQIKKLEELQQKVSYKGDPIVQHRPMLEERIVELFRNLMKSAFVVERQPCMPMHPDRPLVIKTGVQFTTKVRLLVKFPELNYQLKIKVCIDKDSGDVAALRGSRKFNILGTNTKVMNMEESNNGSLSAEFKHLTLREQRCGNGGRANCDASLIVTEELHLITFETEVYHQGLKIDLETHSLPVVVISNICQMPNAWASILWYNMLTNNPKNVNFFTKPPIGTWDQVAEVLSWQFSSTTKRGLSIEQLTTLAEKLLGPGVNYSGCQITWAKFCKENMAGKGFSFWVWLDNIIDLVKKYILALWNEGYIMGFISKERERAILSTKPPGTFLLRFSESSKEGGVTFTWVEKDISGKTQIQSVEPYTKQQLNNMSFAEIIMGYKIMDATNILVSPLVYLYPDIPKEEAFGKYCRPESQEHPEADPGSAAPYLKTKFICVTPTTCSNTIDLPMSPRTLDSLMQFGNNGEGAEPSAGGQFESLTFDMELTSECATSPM
row,SMILES,IC50 [nM]
1,"CC[C@@H](C)OC(=O)[C@H](C)NP(=O)(Cc1ccc2sc(C(=O)N[C@H]3CCC[C@H]4CC[C@@H](C(=O)N5CC(c6cccnc6)C5)N4C3=O)cc2c1)Oc1ccccc1 (stereo partly drawn) [Compound 1016, (R)-sec-butyl (((2-(((3S,6S,9aS)-5-oxo-3-(3-(pyridin-3-yl)azetidine-1-carbonyl)octahydro-1H-pyrrolo[1,2-a]azepin-6-yl)carbamoyl)benzo [b]thiophen-5-yl)methyl)(phenoxy)phosphoryl)-L-alaninate]",100 to 1000
2,"CCCOC(=O)[C@H](COC)NP(=O)(Cc1ccc2sc(C(=O)N[C@H]3CCC[C@H]4CC[C@@H](C(=O)N5CC(c6cnccc6N(C)C)C5)N4C3=O)cc2c1)Oc1ccccc1 (stereo partly drawn) [Compound 1017, propyl N-(((2-(((3S,6S,9aS)-3-(3-(4-(dimethylamino)pyridin-3-yl)azetidine-1-carbonyl)-5-oxooctahydro-1H-pyrrolo[1,2-a]azepin-6-yl)carbamoyl)benzo [b]thiophen-5-yl)methyl)(phenoxy)phosphoryl)-O-methyl-L-serinate]",< 100
3,"CCCOC(=O)[C@H](C)NP(=O)(Oc1ccccc1)[C@H](F)c1ccc2sc(C(=O)N[C@H]3CCC[C@H]4CC[C@@H](C(=O)N5CC(c6cncnc6N6CC[C@H]6COC)C5)N4C3=O)cc2c1 (stereo partly drawn) [Compound 1018, propyl (((S)-fluoro(2-(((3S,6S,9aS)-3-(3-(4-((S)-2-(methoxymethyl)azetidin-1-yl)pyrimidin-5-yl)azetidine-1-carbonyl)-5-oxooctahydro-1H-pyrrolo[1,2-a]azepin-6-yl)carbamoyl)benzo [b]thiophen-5-yl)methyl)(phenoxy)phosphoryl)-L-alaninate]",< 100
4,"CCCOC(=O)[C@H](C)NP(=O)(Cc1ccc2sc(C(=O)N[C@H]3CCC[C@H]4CC[C@@H](C(=O)N5CC(c6cncnc6N6CCC6)C5)N4C3=O)cc2c1)Oc1ccccc1 (stereo partly drawn) [Compound 1019, propyl (((2-(((3S,6S,9aS)-3-(3-(4-(azetidin-1-yl)pyrimidin-5-yl)azetidine-1-carbonyl)-5-oxooctahydro-1H-pyrrolo[1,2-a]azepin-6-yl)carbamoyl)benzo [b]thiophen-5-yl)methyl)(phenoxy)phosphoryl)-L-alaninate]",< 100
5,"CCCOC(=O)[C@H](C)NP(=O)(Oc1ccccc1)C(F)c1ccc2sc(C(=O)N[C@H]3CCCC[C@H]4CC[C@@H](C(=O)N5CC(NCC(F)F)(c6ccccn6)C5)N4C3=O)cc2c1 (stereo partly drawn) [Compound 1020, propyl (((2-(((3S,6S,10aS)-3-(3-((2,2-difluoroethyl)amino)-3-(pyridin-2-yl)azetidine-1-carbonyl)-5-oxodecahydropyrrolo [1,2-a]azocin-6-yl)carbamoyl)benzo [b]thiophen-5-yl)fluoromethyl) (phenoxy)phosphoryl)-L-alaninate]",< 100
6,"CCCOC(=O)[C@H](C)NP(=O)(Cc1ccc2sc(C(=O)N[C@H]3C[C@@H](C)C[C@H]4CC[C@@H](C(=O)N5CC(c6cnccc6N(C)C)C5)N4C3=O)cc2c1)Oc1ccccc1 (stereo partly drawn) [Compound 1021, propyl (((2-(((3S,6S,8R,9aR)-3-(3-(4-(dimethylamino)pyridin-3-yl)azetidine-1-carbonyl)-8-methyl-5-oxooctahydro-1H-pyrrolo[1,2-a]azepin-6-yl)carbamoyl)benzo [b]thiophen-5-yl)methyl)(phenoxy)phosphoryl)-L-alaninate]",< 100
7,"CCCOC(=O)[C@H](C)NP(=O)(Oc1ccccc1)[C@@H](F)c1ccc2sc(C(=O)N[C@H]3CCC[C@H]4CC[C@@H](C(=O)N5CC(c6cncc(F)c6N(C)C)C5)N4C3=O)cc2c1 (stereo partly drawn) [Compound 1022, propyl (((R)-(2-(((3S,6S,9aS)-3-(3-(4-(dimethylamino)-5-fluoropyridin-3-yl)azetidine-1-carbonyl)-5-oxooctahydro-1H-pyrrolo[1,2-a]azepin-6-yl)carbamoyl)benzo [b]thiophen-5-yl)fluoromethyl) (phenoxy)phosphoryl)-L-alaninate]",< 100
8,"CCCOC(=O)[C@H](C)NP(=O)(Oc1ccccc1)[C@H](F)c1ccc2sc(C(=O)N[C@H]3CCC[C@H]4CC[C@@H](C(=O)N5CC(c6cnccc6N6CCC6)C5)N4C3=O)cc2c1 (stereo partly drawn) [Compound 1024, propyl (((S)-(2-(((3S,6S,9aS)-3-(3-(4-(azetidin-1-yl)pyridin-3-yl)azetidine-1-carbonyl)-5-oxooctahydro-1H-pyrrolo[1,2-a]azepin-6-yl)carbamoyl)benzo [b]thiophen-5-yl)fluoromethyl) (phenoxy)phosphoryl)-L-alaninate]",100 to 1000
9,"CCCOC(=O)[C@H](C)NP(=O)(Cc1ccc2sc(C(=O)N[C@H]3CCC[C@H]4CC[C@@H](C(=O)N5CC(c6cnccc6N(C)C)C5)N4C3=O)cc2c1)OCC(F)(F)F (stereo partly drawn) [Compound 1025, propyl (((2-(((3S,6S,9aS)-3-(3-(4-(dimethylamino)pyridin-3-yl)azetidine-1-carbonyl)-5-oxooctahydro-1H-pyrrolo[1,2-a]azepin-6-yl)carbamoyl)benzo [b]thiophen-5-yl)methyl)(2,2,2-trifluoroethoxy)phosphoryl)-L-alaninate]",< 100
10,"CCCOC(=O)[C@H](C)NP(=O)(Oc1ccccc1)[C@@H](F)c1ccc2sc(C(=O)N[C@H]3CCC[C@H]4CC[C@@H](C(=O)N5CC(c6cncc(F)c6NC)C5)N4C3=O)cc2c1 (stereo partly drawn) [Compound 1026, propyl (((R)-fluoro(2-(((3S,6S,9aS)-3-(3-(5-fluoro-4-(methylamino)pyridin-3-yl)azetidine-1-carbonyl)-5-oxooctahydro-1H-pyrrolo[1,2-a]azepin-6-yl)carbamoyl)benzo [b]thiophen-5-yl)methyl)(phenoxy)phosphoryl)-L-alaninate]",< 100
11,"CCCOC(=O)[C@H](C)NP(=O)(Oc1ccccc1)[C@@H](F)c1ccc2sc(C(=O)N[C@H]3CCC[C@H]4CC[C@@H](C(=O)N5CC(c6cnccc6N6CCC6)C5)N4C3=O)cc2c1 (stereo partly drawn) [Compound 1028, propyl (((R)-(2-(((3S,6S,9aS)-3-(3-(4-(azetidin-1-yl)pyridin-3-yl)azetidine-1-carbonyl)-5-oxooctahydro-1H-pyrrolo[1,2-a]azepin-6-yl)carbamoyl)benzo [b]thiophen-5-yl)fluoromethyl) (phenoxy)phosphoryl)-L-alaninate]",100 to 1000
12,"CCCOC(=O)[C@H](C)NP(=O)(Oc1ccccc1)[C@@H](F)c1ccc2sc(C(=O)N[C@H]3C[C@@H](C)C[C@H]4CC[C@@H](C(=O)N5CC(c6cnccc6N(C)C)C5)N4C3=O)cc2c1 (stereo partly drawn) [Compound 1029, propyl (((R)-(2-(((3S,6S,8R,9aR)-3-(3-(4-(dimethylamino)pyridin-3-yl)azetidine-1-carbonyl)-8-methyl-5-oxooctahydro-1H-pyrrolo[1,2-a]azepin-6-yl)carbamoyl)benzo [b]thiophen-5-yl)fluoromethyl) (phenoxy)phosphoryl)-L-alaninate]",< 100
13,"CCCOC(=O)[C@H](C)NP(=O)(Oc1ccccc1)[C@@H](F)c1ccc2sc(C(=O)N[C@H]3CCC[C@H]4CC[C@@H](C(=O)N[C@H]5CN(c6ncc[nH]6)C[C@@H]5F)N4C3=O)cc2c1 (stereo partly drawn) [Compound 1030, propyl (((R)-fluoro(2-(((3S,6S,9aS)-3-(((3S,4S)-4-fluoro-1-(1H-imidazol-2-yl)pyrrolidin-3-yl)carbamoyl)-5-oxooctahydro-1H-pyrrolo[1,2-a]azepin-6-yl)carbamoyl)benzo [b]thiophen-5-yl)methyl)(phenoxy)phosphoryl)-L-alaninate]",> 3000
14,"CCCOC(=O)[C@H](C)NP(=O)(Cc1ccc2sc(C(=O)N[C@H]3CCC[C@H]4CC[C@@H](C(=O)N5CC(c6cnccc6N6CCC6)C5)N4C3=O)cc2c1)Oc1ccccc1 (stereo partly drawn) [Compound 1031, propyl (((2-(((3S,6S,9aS)-3-(3-(4-(azetidin-1-yl)pyridin-3-yl)azetidine-1-carbonyl)-5-oxooctahydro-1H-pyrrolo[1,2-a]azepin-6-yl)carbamoyl)benzo [b]thiophen-5-yl)methyl)(phenoxy)phosphoryl)-L-alaninate]",< 100
15,"CCCOC(=O)[C@H](C)NP(=O)(Cc1ccc2sc(C(=O)N[C@H]3CCC[C@H]4CC[C@@H](C(=O)N5CC(c6cnccc6N6CCOCC6)C5)N4C3=O)cc2c1)Oc1ccccc1 (stereo partly drawn) [Compound 1038, propyl (((2-(((3S,6S,9aS)-3-(3-(4-morpholinopyridin-3-yl)azetidine-1-carbonyl)-5-oxooctahydro-1H-pyrrolo[1,2-a]azepin-6-yl)carbamoyl)benzo [b]thiophen-5-yl)methyl)(phenoxy)phosphoryl)-L-alaninate]",< 100
16,"CCCOC(=O)[C@H](C)NP(=O)(Oc1ccccc1)C(F)c1ccc2sc(C(=O)N[C@H]3CCC[C@H]4CC[C@@H](C(=O)N5CC(c6cncnc6OC)C5)N4C3=O)cc2c1 (stereo partly drawn) [Compound 1042, propyl ((fluoro(2-(((3S,6S,9aS)-3-(3-(4-methoxypyrimidin-5-yl)azetidine-1-carbonyl)-5-oxooctahydro-1H-pyrrolo[1,2-a]azepin-6-yl)carbamoyl)benzo [b]thiophen-5-yl)methyl)(phenoxy)phosphoryl)-L-alaninate]",100 to 1000
17,CCCOC(=O)[C@H](C)NP(=O)(Oc1ccccc1)C(F)c1ccc2sc(C(=O)N[C@H]3CCC[C@H]4CC[C@@H](C(=O)N5CC(c6cncnc6N(C)C)C5)N4C3=O)cc2c1 (stereo partly drawn) [Compound 1043],< 100
18,"CCCOC(=O)[C@H](C)NP(=O)(Oc1ccccc1)[C@@H](F)c1ccc2sc(C(=O)N[C@H]3CCC[C@H]4CC[C@@H](C(=O)N5CC(c6cncc(F)c6O)C5)N4C3=O)cc2c1 (stereo partly drawn) [Compound 1060, propyl (((R)-fluoro(2-(((3S,6S,9aS)-3-(3-(5-fluoro-4-hydroxypyridin-3-yl)azetidine-1-carbonyl)-5-oxooctahydro-1H-pyrrolo[1,2-a]azepin-6-yl)carbamoyl)benzo [b]thiophen-5-yl)methyl)(phenoxy)phosphoryl)-L-alaninate]",100 to 1000
